Test results reported in ChEMBL document CHEMBL1177848, “Synthesis of novel 6,6a,7,8-tetrahydro-5H-naphtho[1,2-e]pyrimido[4,5-b][1,4]diazepines under microwave irradiation as potential anti-tumor agents” (2010).
The source made the active and inactive calls. The calls are words filed in the database; no cut-off is given here.

Experiments:
RPMI-8226 [1] = test: Growth inhibition of human RPMI8226 cells at 1 uM after 48 hrs by sulforhodamine B assay; assay type: functional, cell-based
HCT-15 = test: Growth inhibition of human HCT15 cells after 48 hrs by sulforhodamine B assay; assay type: functional; settings: HCT-15, 48 h
COLO 205 [2] = test: Growth inhibition of human COLO205 cells at 1 uM after 48 hrs by sulforhodamine B assay; assay type: functional, cell-based
RPMI-8226 [3] = test: Growth inhibition of human RPMI8226 cells after 48 hrs by sulforhodamine B assay; assay type: functional; settings: RPMI-8226, 48 h
EKVX = test: Growth inhibition of human EKVX cells at 1 uM after 48 hrs by sulforhodamine B assay; assay type: functional, cell-based
UACC-62 = test: Growth inhibition of human UACC62 cells after 48 hrs by sulforhodamine B assay; assay type: functional; settings: UACC-62, 48 h
SF-539 = test: Growth inhibition of human SF539 cells at 1 uM after 48 hrs by sulforhodamine B assay; assay type: functional, cell-based
SN12C [4] = test: Growth inhibition of human SN12C cells at 1 uM after 48 hrs by sulforhodamine B assay; assay type: functional, cell-based
UACC-257 = test: Growth inhibition of human UACC257 cells after 48 hrs by sulforhodamine B assay; assay type: functional; settings: UACC-257, 48 h
NCI-H460 [5] = test: Growth inhibition of human NCI-H460 cells at 1 uM after 48 hrs by sulforhodamine B assay; assay type: functional, cell-based
TK-10 [6] = test: Growth inhibition of human TK10 cells at 1 uM after 48 hrs by sulforhodamine B assay; assay type: functional, cell-based
HCT-116 [7] = test: Growth inhibition of human HCT116 cells at 1 uM after 48 hrs by sulforhodamine B assay; assay type: functional, cell-based
A498 [8] = test: Growth inhibition of human A498 cells after 48 hrs by sulforhodamine B assay; assay type: functional; settings: A498, 48 h
K562 = test: Growth inhibition of human K562 cells at 1 uM after 48 hrs by sulforhodamine B assay; assay type: functional, cell-based
T47D = test: Growth inhibition of human T47D cells at 1 uM after 48 hrs by sulforhodamine B assay; assay type: functional, cell-based
A498 [9] = test: Growth inhibition of human A498 cells at 1 uM after 48 hrs by sulforhodamine B assay; assay type: functional, cell-based
LOX IMVI = test: Growth inhibition of human LOXIMVI cells at 1 uM after 48 hrs by sulforhodamine B assay; assay type: functional, cell-based
RXF 393 = test: Growth inhibition of human RXF393 cells at 1 uM after 48 hrs by sulforhodamine B assay; assay type: functional, cell-based
HT-29 [10] = test: Growth inhibition of human HT-29 cells at 1 uM after 48 hrs by sulforhodamine B assay; assay type: functional, cell-based
HCT-116 [11] = test: Growth inhibition of human HCT116 cells after 48 hrs by sulforhodamine B assay; assay type: functional; settings: HCT-116, 48 h
SK-MEL-5 = test: Growth inhibition of human SK-MEL-5 cells after 48 hrs by sulforhodamine B assay; assay type: functional; settings: SK-MEL-5, 48 h
KM12 = test: Growth inhibition of human KM12 cells after 48 hrs by sulforhodamine B assay; assay type: functional; settings: KM12, 48 h
SF530 = test: Growth inhibition of human SF530 cells at 1 uM after 48 hrs by sulforhodamine B assay; assay type: functional, cell-based
ACHN [12] = test: Growth inhibition of human ACHN cells after 48 hrs by sulforhodamine B assay; assay type: functional
Malme-3M = test: Growth inhibition of human MALME-3M cells after 48 hrs by sulforhodamine B assay; assay type: functional
DU-145 = test: Growth inhibition of human DU145 cells at 1 uM after 48 hrs by sulforhodamine B assay; assay type: functional, cell-based
MDA-MB-435 = test: Growth inhibition of human MDA-MB-435 cells after 48 hrs by sulforhodamine B assay; assay type: functional; settings: MDA-MB-435, 48 h
NCI-H23 = test: Growth inhibition of human NCI-H23 cells at 1 uM after 48 hrs by sulforhodamine B assay; assay type: functional, cell-based
NCI-H226 = test: Growth inhibition of human NCI-H226 cells after 48 hrs by sulforhodamine B assay; assay type: functional; settings: NCI-H226, 48 h
MDA-MB-231 [13] = test: Growth inhibition of human MDA-MB-231 cells after 48 hrs by sulforhodamine B assay; assay type: functional; settings: MDA-MB-231, 48 h
SW-620 = test: Growth inhibition of human SW620 cells after 48 hrs by sulforhodamine B assay; assay type: functional; settings: SW-620, 48 h
SR = test: Growth inhibition of human SR cells at 1 uM after 48 hrs by sulforhodamine B assay; assay type: functional, cell-based
ACHN [14] = test: Growth inhibition of human ACHN cells at 1 uM after 48 hrs by sulforhodamine B assay; assay type: functional, cell-based
MOLT-4 = test: Growth inhibition of human MOLT4 cells at 1 uM after 48 hrs by sulforhodamine B assay; assay type: functional, cell-based
SN12C [15] = test: Growth inhibition of human SN12C cells after 48 hrs by sulforhodamine B assay; assay type: functional
NCI-H460 [16] = test: Growth inhibition of human NCI-H460 cells after 48 hrs by sulforhodamine B assay; assay type: functional; settings: NCI-H460, 48 h
HT-29 [17] = test: Growth inhibition of human HT-29 cells after 48 hrs by sulforhodamine B assay; assay type: functional; settings: HT-29, 48 h
BT-549 = test: Growth inhibition of human BT549 cells at 1 uM after 48 hrs by sulforhodamine B assay; assay type: functional, cell-based
MDA-MB-231 [18] = test: Growth inhibition of human MDA-MB-231 cells at 1 uM after 48 hrs by sulforhodamine B assay; assay type: functional, cell-based
OVCAR-8 = test: Growth inhibition of human OVCAR8 cells at 1 uM after 48 hrs by sulforhodamine B assay; assay type: functional, cell-based
TK-10 [19] = test: Growth inhibition of human TK10 cells after 48 hrs by sulforhodamine B assay; assay type: functional; settings: TK-10, 48 h
SK-MEL-28 = test: Growth inhibition of human SK-MEL-28 cells at 1 uM after 48 hrs by sulforhodamine B assay; assay type: functional, cell-based
U-251 = test: Growth inhibition of human U251 cells after 48 hrs by sulforhodamine B assay; assay type: functional; settings: U-251, 48 h
SF-295 = test: Growth inhibition of human SF295 cells after 48 hrs by sulforhodamine B assay; assay type: functional; settings: SF-295, 48 h
COLO 205 [20] = test: Growth inhibition of human COLO205 cells after 48 hrs by sulforhodamine B assay; assay type: functional; settings: COLO 205, 48 h
MDA-MB-468 = test: Growth inhibition of human MDA-MB-468 cells at 1 uM after 48 hrs by sulforhodamine B assay; assay type: functional, cell-based
[21] = read-out: LC50 (the source's name)

For `Nc1nc(N)c2c(n1)NC(c1ccccc1)C1CCc3ccccc3C1=N2` (configuration not stated), the “growth inhibition (GI)” value (RPMI-8226 [1]) was “inactive”, the GI50 (HCT-15) was 4.06 µM and the LC50 (HCT-15) was 48.8 µM. The “growth inhibition (GI)” value (COLO 205 [2]) was “inactive”, the GI50 (RPMI-8226 [3]) was 3.21 µM and the LC50 (RPMI-8226 [3]) was over 100 µM. For the same molecule, the “growth inhibition (GI)” value (EKVX) was “inactive”, the GI50 (UACC-62) was 3.11 µM and the LC50 (UACC-62) was 45 µM. For the same molecule, the “growth inhibition (GI)” value (SF-539) was “inactive”, the “growth inhibition (GI)” value (SN12C [4]) was “inactive” and the GI50 (UACC-257) was 3.72 µM. For the same molecule, the CC50 (UACC-257; [21]) was 42.6 µM, the “growth inhibition (GI)” value (NCI-H460 [5]) was “inactive” and the “growth inhibition (GI)” value (TK-10 [6]) was “inactive”. The “growth inhibition (GI)” value (HCT-116 [7]) was “inactive”, the GI50 (A498 [8]) was 2.29 µM and the LC50 (A498 [8]) was 30.2 µM. For the same molecule, the “growth inhibition (GI)” value (K562) was “inactive”, the “growth inhibition (GI)” value (T47D) was “inactive” and the “growth inhibition (GI)” value (A498 [9]) was “inactive”. For the same molecule, the “growth inhibition (GI)” value (LOX IMVI) was “inactive”, the “growth inhibition (GI)” value (RXF 393) was “inactive” and the “growth inhibition (GI)” value (HT-29 [10]) was “inactive”. The GI50 (HCT-116 [11]) was 2.97 µM, the LC50 (HCT-116 [11]) was 38 µM and the GI50 (SK-MEL-5) was 0.638 µM. It also gave an LC50 (SK-MEL-5) of 6.35 µM, a GI50 (KM12) of 4.07 µM and an LC50 (concentration killing 50% of cells) (KM12) of 39.7 µM. For the same molecule, the “growth inhibition (GI)” value (SF530) was “inactive”, the GI50 (ACHN [12]) was 4.38 µM and the LC50 (50% lethal concentration) (ACHN [12]) was 41.9 µM. For the same molecule, the GI50 (Malme-3M) was 2.13 µM, the LC50 (Malme-3M) was 82.5 µM and the “growth inhibition (GI)” value (DU-145) was “inactive”. For the same molecule, the GI50 (MDA-MB-435) was 2.93 µM, the LC50 (concentration killing 50% of cells) (MDA-MB-435) was 39.9 µM and the “growth inhibition (GI)” value (NCI-H23) was “inactive”. For the same molecule, the GI50 (NCI-H226) was 5.96 µM, the LC50 (NCI-H226) was over 100 µM and the GI50 (MDA-MB-231 [13]) was 6.02 µM. It also gave a CC50 (MDA-MB-231 [13]; [21]) of 51.9 µM, a GI50 (SW-620) of 6.3 µM and an LC50 (SW-620) of 53.3 µM. The “growth inhibition (GI)” value (SR) was “inactive”, the “growth inhibition (GI)” value (ACHN [14]) was “inactive” and the “growth inhibition (GI)” value (MOLT-4) was “inactive”. It also gave a GI50 (SN12C [15]) of 7.33 µM, a CC50 (SN12C [15]; [21]) of 50.8 µM and a GI50 (NCI-H460 [16]) of 3.81 µM. For the same molecule, the LC50 (NCI-H460 [16]) was 44.2 µM, the GI50 (HT-29 [17]) was 3.66 µM and the CC50 (HT-29 [17]; [21]) was 38 µM. For the same molecule, the “growth inhibition (GI)” value (BT-549) was “inactive”, the “growth inhibition (GI)” value (MDA-MB-231 [18]) was “inactive” and the “growth inhibition (GI)” value (OVCAR-8) was “inactive”. The GI50 (TK-10 [19]) was 3.01 µM, the LC50 (50% lethal concentration) (TK-10 [19]) was 43.6 µM and the “growth inhibition (GI)” value (SK-MEL-28) was “inactive”. For the same molecule, the GI50 (U-251) was 4.65 µM, the LC50 (U-251) was 44 µM and the GI50 (SF-295) was 1.69 µM. For the same molecule, the LC50 (50% lethal concentration) (SF-295) was 34.4 µM, the GI50 (COLO 205 [20]) was 3.07 µM and the LC50 (50% lethal concentration) (COLO 205 [20]) was 38.7 µM. The “growth inhibition (GI)” value (MDA-MB-468) was “inactive”.
